Results reported in PMC12848717, “Discovery of Encrypted Peptides in a Human Matrix Metallopeptidase” (JACS Au, 2025).

Assays:
A. baumannii ATCC 19606 = conditions: Table S3
[1] = tested on: S. epidermidis ATCC 35984; conditions: Table S4
[2] = serial exposure at MIC/2, treatment 1 of 21
[3] = serial exposure at MIC/2, treatment 2 of 21
[4] = serial exposure at MIC/2, treatment 3 of 21
[5] = serial exposure at MIC/2, treatment 4 of 21
[6] = serial exposure at MIC/2, treatment 5 of 21
[7] = serial exposure at MIC/2, treatment 6 of 21
[8] = serial exposure at MIC/2, treatment 7 of 21
[9] = serial exposure at MIC/2, treatment 8 of 21
[10] = serial exposure at MIC/2, treatment 9 of 21
[11] = serial exposure at MIC/2, treatment 10 of 21
[12] = serial exposure at MIC/2, treatment 11 of 21
[13] = serial exposure at MIC/2, treatment 12 of 21
[14] = serial exposure at MIC/2, treatment 13 of 21
[15] = serial exposure at MIC/2, treatment 14 of 21
[16] = serial exposure at MIC/2, treatment 15 of 21
[17] = serial exposure at MIC/2, treatment 16 of 21
[18] = serial exposure at MIC/2, treatment 17 of 21
[19] = serial exposure at MIC/2, treatment 18 of 21
[20] = serial exposure at MIC/2, treatment 19 of 21
[21] = serial exposure at MIC/2, treatment 20 of 21
[22] = serial exposure at MIC/2, treatment 21 of 21

Colistin [reference compound]
8 µM: MIC after treatment 1 [1, 2] | MIC after treatment 2 [1, 3] | MIC after treatment 3 [1, 4] | MIC after treatment 4 [1, 5] | MIC after treatment 5 [1, 6] | MIC after treatment 6 [1, 7] | MIC after treatment 7 [1, 8] | MIC after treatment 8 [1, 9] | MIC after treatment 9 [1, 10] | MIC after treatment 10 [1, 11] | MIC after treatment 11 [1, 12] | MIC after treatment 12 [1, 13] | MIC after treatment 13 [1, 14] | MIC after treatment 14 [1, 15] | MIC after treatment 15 [1, 16] | MIC after treatment 16 [1, 17] | MIC after treatment 17 [1, 18] | MIC after treatment 18 [1, 19] | MIC after treatment 19 [1, 20] | MIC after treatment 20 [1, 21] | MIC after treatment 21 [1, 22]
4 µM: MIC after treatment 1 (A. baumannii ATCC 19606; [2]) | MIC after treatment 2 (A. baumannii ATCC 19606; [3]) | MIC after treatment 3 (A. baumannii ATCC 19606; [4]) | MIC after treatment 4 (A. baumannii ATCC 19606; [5]) | MIC after treatment 5 (A. baumannii ATCC 19606; [6]) | MIC after treatment 6 (A. baumannii ATCC 19606; [7]) | MIC after treatment 7 (A. baumannii ATCC 19606; [8]) | MIC after treatment 8 (A. baumannii ATCC 19606; [9]) | MIC after treatment 9 (A. baumannii ATCC 19606; [10]) | MIC after treatment 10 (A. baumannii ATCC 19606; [11]) | MIC after treatment 11 (A. baumannii ATCC 19606; [12]) | MIC after treatment 12 (A. baumannii ATCC 19606; [13]) | MIC after treatment 13 (A. baumannii ATCC 19606; [14]) | MIC after treatment 14 (A. baumannii ATCC 19606; [15]) | MIC after treatment 15 (A. baumannii ATCC 19606; [16]) | MIC after treatment 16 (A. baumannii ATCC 19606; [17]) | MIC after treatment 17 (A. baumannii ATCC 19606; [18]) | MIC after treatment 18 (A. baumannii ATCC 19606; [19]) | MIC after treatment 19 (A. baumannii ATCC 19606; [20]) | MIC after treatment 20 (A. baumannii ATCC 19606; [21]) | MIC after treatment 21 (A. baumannii ATCC 19606; [22])
